Target: T1, human FAAH (Homo sapiens, UniProt O00519)
T1 construct: host or cells: COS-7 cells, transient transfection; 13,000 g membrane fraction solubilised in 1% Triton X-100
T1 sequence (O00519 1-579): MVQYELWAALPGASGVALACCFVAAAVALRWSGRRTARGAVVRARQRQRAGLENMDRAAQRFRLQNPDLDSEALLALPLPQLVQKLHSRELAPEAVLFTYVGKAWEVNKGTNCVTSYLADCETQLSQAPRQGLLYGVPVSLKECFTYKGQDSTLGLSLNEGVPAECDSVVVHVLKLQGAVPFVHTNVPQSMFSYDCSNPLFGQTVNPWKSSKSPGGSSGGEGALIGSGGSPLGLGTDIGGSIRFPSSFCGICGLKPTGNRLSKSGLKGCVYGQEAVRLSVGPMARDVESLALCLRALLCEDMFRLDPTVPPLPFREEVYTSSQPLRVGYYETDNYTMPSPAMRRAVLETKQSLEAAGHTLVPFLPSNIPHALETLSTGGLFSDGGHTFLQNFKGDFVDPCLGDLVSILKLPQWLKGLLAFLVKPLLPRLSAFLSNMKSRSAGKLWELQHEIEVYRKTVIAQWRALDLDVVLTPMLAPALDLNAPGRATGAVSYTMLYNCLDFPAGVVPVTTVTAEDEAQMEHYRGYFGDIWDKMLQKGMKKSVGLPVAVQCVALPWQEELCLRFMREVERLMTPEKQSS
Experiment: Inhibition of human FAAH (fluorescence assay, AMC Arachidonoyl Amide substrate)
Type: biochemical
Conditions: solubilized human FAAH from transfected COS-7 cells; 30 minutes preincubation; 20 μM AMC-Arachidonoyl substrate; 4 hours at room temperature
Procedure: Human FAAH Preparation: COS-7 cells were split the day before, 1:5 into 150 mm×25 mm cell culture dishes (Corning Inc., Cat. No. 430599). Transient transfection took place at 30-40% confluency according to FuGENE 6 Transfection Reagent (Roche, Cat. No. 11814 443 001).
Transfection Procedure: The FuGENE transfection 6 reagent (45 uL) was added to 1410 μL of media (DMEM, serum free without pen/strep) in a 15 mL conical tube and incubated at room temp for 5 minutes, followed by the addition of FAAH plasmid DNA (15 μg) (OriGene Cat. No. TC119221, Genbank Accession No. NM 001441.1, 0.67 ug/uL) and a further incubation of 15 minutes at room temperature. The resulting solution was added into one dish of 30-40% confluent COS-7 cells in a drop-wise manner. The COS-7 cell dish was subsequently incubated for 48 hours. The cells are then harvested.
Harvest procedure: Media was aspirated from the dishes and the cells rinsed with 10 mL PBS. The PBS was removed and 3 mL of PBS added to the dish. The dish was scraped to resuspend the cells, and the subsequent cell suspension collected into a 15 mL conical tube. The cells were pelleted by centrifugation at 1200 rpm for 5 minutes in a bench top centrifuge. PBS was removed and the cell pellet snap frozen in liquid nitrogen and stored at −80° C.
COS-7 Cells—FAAH Purification: • (1) Fractionation: Frozen cell pellets from transient transfections were thawed on ice and resuspended in 12.5 mM Hepes pH 8.0, 100 mM NaCl, 1 mM EDTA (10 mL/0.2 g cell pellet). The pellets were dounce homogenized and then sonicated to produce cell extract. The cell extract was subsequently centrifuged at 1000 g to remove cellular debris. The pellet was discarded and the supernatant centrifuged at 13,000 g for 20 minutes. The pellet contained membrane bound FAAH. The supernatant was discarded and the pellet resolubilized. • (2) Re-solubilization: The fraction of interest, (13,000 g, membrane fraction) was re-suspended in 2.3 mL re-suspension buffer (20 mM Hepes pH 7.8, 10% v/v Glycerol, 1 mM EDTA, 1% Triton X-100) and the sample incubated on ice for 1 hour and then centrifuged to remove any particulate matter. The supernatant containing solubilized human FAAH was aliquoted and snap frozen in liquid nitrogen and stored at −80° C. until use. • (3) Characterization: Protein Concentration determined by Bradford assay. • SDS gel and Western blot to confirm presence of FAAH • FAAH activity assay • Km determination—96-well assay • Linear dependence—96-well assay • Standard compound Ki determination—384-well assay
Human FAAH assay; Experimental Protocol: A 0.1 mg/mL Human FAAH solution was made up in FAAH reaction buffer, and 24 ul pipeted into a 384 well plate. To this was added 1 μL of a 3 fold serially diluted inhibitor from a DMSO stock solution. The FAAH solution and inhibitor were incubated for 30 minutes at room temperature. The FAAH reaction was initiated by the addition of 25 μL of 40 μM AMC Arachidonoyl Amide in FAAH reaction buffer, yielding a final reaction human FAAH preparation concentration of 0.05 mg/ml and AMC-Arachidonoyl substrate concentration of 20 μM, reaction volume 50 μL. The reaction was allowed to proceed for 4 hours at room temperature. The reaction was stopped by the addition of 25 μL 12 μM a-ketoheterocycle (Cayman Chemicals, catalogue # 10435). The microtiter plate was read in the envision plate reader.
The raw fluorescence was plotted on the y axis and the inhibitor concentration on the x axis to give a dose response inhibition curve. The data was fitted to a single site competitive inhibition equation, fixing the Km for the human enzyme to 12 μM and 9 μM respectively.

Compound | Ki
BrC1=NO[C@@H](c2ccncc2)C1 [II-1a] | ≥ 1000 nM
BrC1=NO[C@H](c2ccncc2)C1 [II-1b] | ≥ 1000 nM
BrC1=NO[C@@H](c2cccnc2)C1 [II-2a] | ≥ 1000 nM
BrC1=NO[C@H](c2cccnc2)C1 [II-2b] | ≥ 1000 nM
BrC1=NO[C@@H](c2ccccn2)C1 [II-3a] | ≥ 1000 nM
BrC1=NO[C@H](c2ccccn2)C1 [II-3b] | ≥ 1000 nM
BrC1=NO[C@H](c2cnn(-c3ccccc3)c2)C1 [II-4-b] | 100 to 1000 nM
BrC1=NO[C@@H](c2cnn(-c3ccccc3)c2)C1 [II-4a] | 100 to 1000 nM
BrC1=NO[C@@H](c2csc(-c3ccccc3)n2)C1 [II-5a] | ≥ 1000 nM
BrC1=NO[C@H](c2csc(-c3ccccc3)n2)C1 [II-5b] | ≥ 1000 nM
BrC1=NO[C@@H](c2cnc(-c3ccccc3)s2)C1 [II-6a] | ≤ 100 nM
BrC1=NO[C@H](c2cnc(-c3ccccc3)s2)C1 [II-6b] | ≤ 100 nM
BrC1=NO[C@@H](c2ccc(-c3ccccc3)s2)C1 [II-7a] | ≤ 100 nM
BrC1=NO[C@H](c2ccc(-c3ccccc3)s2)C1 [II-7b] | ≤ 100 nM
BrC1=NO[C@@H](c2cc(-c3ccccc3)cs2)C1 [II-8a] | ≤ 100 nM
BrC1=NO[C@H](c2cc(-c3ccccc3)cs2)C1 [II-8b] | ≤ 100 nM
BrC1=NO[C@@H](c2ccc3ncccc3c2)C1 [II-9a] | ≤ 100 nM
BrC1=NO[C@H](c2ccc3ncccc3c2)C1 [II-9b] | ≤ 100 nM
BrC1=NO[C@@H](c2cnc3ccccc3c2)C1 [II-10a] | ≤ 100 nM
BrC1=NO[C@H](c2cnc3ccccc3c2)C1 [II-10b] | ≤ 100 nM

Compound | Ki
BrC1=NO[C@@H](c2ccc3nccnc3c2)C1 [II-11a] | ≤ 100 nM
BrC1=NO[C@H](c2ccc3nccnc3c2)C1 [II-11b] | ≤ 100 nM
CC(C)(C)OC(=O)Nc1nc2ccc([C@H]3CC(Br)=NO3)cc2s1 [II-13a] | 100 to 1000 nM
CC(C)(C)OC(=O)Nc1nc2ccc([C@@H]3CC(Br)=NO3)cc2s1 [II-13b] | 100 to 1000 nM
CC(C)(C)OC(=O)N1CCN(C[C@H]2CC(Br)=NO2)CC1 [II-14a] | ≤ 100 nM
CC(C)(C)OC(=O)N1CCN(C[C@@H]2CC(Br)=NO2)CC1 [II-14b] | ≤ 100 nM
O=C(OCc1ccccc1)N1CCC([C@H]2CC(Br)=NO2)CC1 [II-15a] | 100 to 1000 nM
O=C(OCc1ccccc1)N1CCC([C@@H]2CC(Br)=NO2)CC1 [II-15b] | 100 to 1000 nM
CC(C)(C)OC(=O)N1CCC([C@H]2CC(Br)=NO2)CC1 [II-16a] | ≤ 100 nM
CC(C)(C)OC(=O)N1CCC([C@@H]2CC(Br)=NO2)CC1 [II-16b] | ≤ 100 nM
Clc1ccc(-c2ncc([C@H]3CC(Br)=NO3)s2)cc1 [II-17a] | ≤ 100 nM
Clc1ccc(-c2ncc([C@@H]3CC(Br)=NO3)s2)cc1 [II-17b] | ≤ 100 nM
C[C@]1(c2cnc(-c3ccccc3)s2)CC(Br)=NO1 [II-18a] | ≤ 100 nM
C[C@@]1(c2cnc(-c3ccccc3)s2)CC(Br)=NO1 [II-18b] | ≤ 100 nM
C[C@H]1C(Br)=NO[C@H]1c1cnc(-c2ccccc2)s1 [II-19a] | ≤ 100 nM
C[C@@H]1C(Br)=NO[C@@H]1c1cnc(-c2ccccc2)s1 [II-19b] | ≤ 100 nM
C[C@@H]1C(Br)=NO[C@H]1c1cnc(-c2ccccc2)s1 [II-20a] | ≥ 1000 nM
C[C@H]1C(Br)=NO[C@@H]1c1cnc(-c2ccccc2)s1 [II-20b] | ≥ 1000 nM
c1ccc(-c2ncc([C@H]3CC(Oc4cccnc4)=NO3)s2)cc1 [II-21a] | ≤ 100 nM
c1ccc(-c2ncc([C@@H]3CC(Oc4cccnc4)=NO3)s2)cc1 [II-21b] | ≤ 100 nM

Second part, the compound after the results:

Ki | Compound
≤ 100 nM | C[C@]1(c2cnc(-c3ccccc3)s2)CC(Oc2cncnc2)=NO1 [II-22a]
≤ 100 nM | C[C@@]1(c2cnc(-c3ccccc3)s2)CC(Oc2cncnc2)=NO1 [II-22b]
≤ 100 nM | C[C@]1(c2cnc(-c3ccccc3)s2)CC(Oc2cccnc2)=NO1 [II-23a]
≤ 100 nM | C[C@@]1(c2cnc(-c3ccccc3)s2)CC(Oc2cccnc2)=NO1 [II-23b]
100 to 1000 nM | Cc1nc(-c2ccccc2)sc1[C@@]1(C)CC(Br)=NO1 [II-24a]
100 to 1000 nM | Cc1nc(-c2ccccc2)sc1[C@]1(C)CC(Br)=NO1 [II-24b]
≤ 100 nM | BrC1=NO[C@@H](c2ccc(-c3cccnc3)s2)C1 [II-25a]
≤ 100 nM | BrC1=NO[C@H](c2ccc(-c3cccnc3)s2)C1 [II-25b]
≤ 100 nM | c1cncc(-c2ccc([C@H]3CC(Oc4cncnc4)=NO3)s2)c1 [II-26a]
≤ 100 nM | c1cncc(-c2ccc([C@@H]3CC(Oc4cncnc4)=NO3)s2)c1 [II-26b]
≤ 100 nM | O=C(O)c1ccc(OC2=NO[C@@H](c3ccc(-c4cccnc4)s3)C2)cn1 [II-27a]
≤ 100 nM | O=C(O)c1ccc(OC2=NO[C@H](c3ccc(-c4cccnc4)s3)C2)cn1 [II-27b]
≤ 100 nM | CS(=O)(=O)c1ccc(OC2=NO[C@@H](c3cnc(-c4ccccc4)s3)C2)cn1 [II-28a]
≤ 100 nM | CS(=O)(=O)c1ccc(OC2=NO[C@H](c3cnc(-c4ccccc4)s3)C2)cn1 [II-28b]
≤ 100 nM | C[C@]1(c2cnc(-c3ccccc3)s2)CC(Oc2ccc(S(C)(=O)=O)nc2)=NO1 [II-29a]
≤ 100 nM | C[C@@]1(c2cnc(-c3ccccc3)s2)CC(Oc2ccc(S(C)(=O)=O)nc2)=NO1 [II-29b]
≥ 1000 nM | O[C@H](CNC1=NO[C@@H](c2cc(-c3ccccc3)cs2)C1)c1ccccc1 [II-30a]
≥ 1000 nM | O[C@@H](CNC1=NO[C@@H](c2cc(-c3ccccc3)cs2)C1)c1ccccc1 [II-31a]
≥ 1000 nM | O[C@@H](CNC1=NO[C@H](c2cc(-c3ccccc3)cs2)C1)c1ccccc1 [II-31b]

— patent publication US8927551B2, “Isoxazolines as inhibitors of fatty acid amide hydrolase” (Infinity Pharmaceuticals, Inc., priority 2009, dated 2015)
